Test results as given in US11751567B2, “Steroidal piperidone derivative, synthesis method, and use thereof” (NORTHWEST A&F UNIVERSITY, priority 2021, dated 2023).
≈ marks a conversion by molar mass, not a printed value. Read-outs that look alike come from different tables or passages of the source.

How the values were obtained:
Type in all cases: in vivo
Brevicoryne brassicae = test: slide-dip mortality test on aphids (Brevicoryne brassicae); conditions: 24 h, read-out: Corrected mortality (%) Brevicoryne brassicae
Method: (§1) Inhibitory activities of the steroidal piperidone derivatives listed in Tables 1 and 2 against Myzus persicae, Aphis citricola, Brevicoryne brassicae, and wheat aphids were determined through slide-dip method. Specific process: A specified amount of a compound to be tested was accurately weighed and dissolved with acetone as a solvent, and solutions with concentrations of 50 μg/mL and 75 μg/mL were each prepared with a 0.1% Tween-80 aqueous solution, allowed to stand at room temperature for 0.5 h until the sample was completely dissolved, and stored for later use. Then, adult aphids were fixed with double-sided tape on slides with a small brush. One end of the slide with the aphids was immersed in the test solutions for 5 seconds. The excess liquid was absorbed with absorbent paper, and the mortality rates were calculated 24 h after treatment. Acetamiprid was adopted as a positive control, and a 0.1% Tween-80 aqueous solution was adopted as a negative control. and the results are shown in Table 1.

Myzus persicae = test: slide-dip mortality test on aphids (Myzus persicae); conditions: 24 h, read-out: Corrected mortality (%) Myzus persicae
Method: as §1

Aphis citricola = test: slide-dip mortality and LC50 test on aphids (Aphis citricola); conditions: for mortality at 50 µg/mL / mortality at 75 µg/mL: 24 h, read-out: Corrected mortality (%) Aphis citricola; for LC50: read-out: LC50 of inhibitory activity against Aphis citricola
Method: as §1

wheat aphids = test: slide-dip mortality test on aphids (wheat aphids); conditions: 24 h, read-out: Corrected mortality (%) Wheat aphid
Method: as §1

rice planthoppers = test: foliar spray test against rice planthoppers; conditions: 72 h, read-out: Corrected mortality (%) rice planthoppers
Method: (§2) The toxic activities of the steroidal piperidone derivatives listed in Table 4 against B. tabaci were tested by a foliar spray method. Specific process: A specified amount of a compound to be tested was accurately weighed and dissolved in acetone, and solutions with concentrations of 50 μg/mL and 75 μg/mL were each prepared with a 0.1% of Tween 80 aqueous solution and stored for later use. The pesticide solution was sprayed on the back side of a cucumber leaf, the cucumber leaf was naturally dried, and B. tabaci to be tested were placed on the cucumber leaf. Thiamethoxam was used as a positive control, and acetone was used as a negative control. Several deaths were observed after 7 d of treatment, and the corrected mortality was calculated.
The toxic activities of the steroidal piperidone derivatives listed in Table 5 against rice planthoppers were tested by a foliar spray method. Imidacloprid was used as a positive control, and acetone was used as a negative control. Several deaths were observed after 3 d of treatment, and the corrected mortality was calculated.

Tetranychus truncatus = test: slide dipping mortality test on mites; conditions: read-out: Corrected mortality (%) Tetranychus truncatus
Method: as §1
The inhibitory activities of the steroidal piperidone derivatives listed in Table 3 on Tetranychus truncatus were tested through slide dipping.

Bemisia tabaci = test: foliar spray test on cucumber leaf against B. tabaci; conditions: 168 h, read-out: Corrected mortality (%) B. tabaci
Method: as §2

[1] = 50 μg/mL, slide dipping, process as for aphids
[2] = 75 μg/mL, slide dipping, process as for aphids

| SMILES | mortality at 50 µg/mL (Brevicoryne brassicae) [%] | mortality at 75 µg/mL (Brevicoryne brassicae) [%] | mortality at 50 µg/mL (Myzus persicae) [%] | mortality at 75 µg/mL (Myzus persicae) [%] | mortality at 50 µg/mL (Aphis citricola) [%] | mortality at 75 µg/mL (Aphis citricola) [%] | LC50 (Aphis citricola) [mg/L] | mortality at 50 µg/mL (wheat aphids) [%] | mortality at 75 µg/mL (wheat aphids) [%] | mortality at 50 µg/mL (rice planthoppers) [%] | mortality at 75 µg/mL (rice planthoppers) [%] | mortality at 50 µg/mL (Tetranychus truncatus; [1]) [%] | mortality at 75 µg/mL (Tetranychus truncatus; [2]) [%] | mortality at 50 µg/mL (Bemisia tabaci) [%] | mortality at 75 µg/mL (Bemisia tabaci) [%] | mortality at 50 µg/mL (Tetranychus truncatus) [%] | mortality at 75 µg/mL (Tetranychus truncatus) [%] |
| --- | --- | --- | --- | --- | --- | --- | --- | --- | --- | --- | --- | --- | --- | --- | --- | --- | --- |
| C/C(=N\C#N)N(C)Cc1ccc(Cl)nc1 [Acetamiprid, reference compound] | 94.4 | 100 | 94.3 | 100 | 93.3 | 100 | 9.95 (≈ 44.7 µM) | 95.5 | 100 | – | – | – | – | – | – | – | – |
| C[C@]12CC[C@H](O)CC1CC[C@@H]1[C@@H]2CC[C@@]2(C)[C@H]1CCC(=O)N2C(=O)c1ccccc1F (stereo partly shown) [Compound (1)-1] | 42.7 | 65.5 | 53.4 | 75.3 | 56.2 | 78.4 | – | 50 | 70.3 | 42.3 | 56.9 | – | – | – | – | – | – |
| C[C@]12CC[C@H](O)CC1CC[C@@H]1[C@@H]2CC[C@@]2(C)[C@H]1CCC(=O)N2C(=O)c1cccc(F)c1 (stereo partly shown) [Compound (1)-2] | 30.3 | 54 | 26.1 | 55.1 | 39.3 | 61.4 | – | 22.1 | 50.4 | 52.1 | 60.3 | – | – | – | – | – | – |
| C[C@]12CC[C@H](O)CC1CC[C@@H]1[C@@H]2CC[C@@]2(C)[C@H]1CCC(=O)N2C(=O)c1ccc(F)cc1 (stereo partly shown) [Compound (1)-3] | 64 | 82.8 | 69.3 | 89.9 | 66.3 | 85.2 | 24.6 (≈ 57.5 µM) | 70.5 | 90 | 63.3 | 71.2 | 54.3 | 70.3 | 67.7 | 74.7 | – | – |
| C[C@]12CC[C@H](O)CC1CC[C@@H]1[C@@H]2CC[C@@]2(C)[C@H]1CCC(=O)N2C(=O)c1ccc(Cl)cc1 (stereo partly shown) [Compound (1)-4] | 86.5 | 100 | 84.1 | 100 | 89.9 | 100 | 11.9 (≈ 26.8 µM) | 91 | 100 | 72 | 80.4 | 64.2 | 88.6 | 72.5 | 87.4 | – | – |
| C[C@]12CC[C@H](O)CC1CC[C@@H]1[C@@H]2CC[C@@]2(C)[C@H]1CCC(=O)N2C(=O)c1cccc(Br)c1 (stereo partly shown) [Compound (1)-6] | 51.7 | 73.6 | 60.2 | 77.5 | 44.9 | 78.4 | – | 59.9 | 80 | 45.2 | 59.2 | 24.9 | 55.3 | 56.1 | 67.5 | – | – |
| Cc1ccccc1C(=O)N1C(=O)CC[C@H]2[C@@H]3CCC4C[C@@H](O)CC[C@]4(C)[C@H]3CC[C@@]21C (stereo partly shown) [Compound (1)-7] | – | – | – | – | – | – | – | – | – | 36.2 | 45.8 | – | – | – | – | – | – |
| Cc1cccc(C(=O)N2C(=O)CC[C@H]3[C@@H]4CCC5C[C@@H](O)CC[C@]5(C)[C@H]4CC[C@@]32C)c1 (stereo partly shown) [Compound (1)-8] | – | – | – | – | – | – | – | – | – | 38.4 | 53.6 | – | – | – | – | – | – |
| C[C@]12CC[C@H](O)CC1CC[C@@H]1[C@@H]2CC[C@@]2(C)[C@H]1CCC(=O)N2C(=O)c1cccc(C(F)(F)F)c1 (stereo partly shown) [Compound (1)-11] | 24.7 | 50.6 | 25 | 52.8 | 25.8 | 54.5 | – | 30.4 | 56.5 | – | – | – | – | – | – | – | – |
| C[C@]12CC[C@H](O)CC1CC[C@@H]1[C@@H]2CC[C@@]2(C)[C@H]1CCC(=O)N2C(=O)c1ccc(C(F)(F)F)cc1 (stereo partly shown) [Compound (1)-12] | 29.2 | 57.5 | 30.7 | 57.3 | 32.6 | 65.9 | – | 24.8 | 55.7 | – | – | – | – | – | – | – | – |
| C[C@]12CC[C@H](O)CC1=CC[C@@H]1[C@@H]2CC[C@@]2(C)[C@H]1CCC(=O)N2C(=O)c1ccccc1Br [Compound (2)-5] | – | – | – | – | – | – | – | – | – | – | – | 43.5 | 69.6 | – | – | – | – |
| Cc1ccccc1C(=O)N1C(=O)CC[C@H]2[C@@H]3CC=C4C[C@@H](O)CC[C@]4(C)[C@H]3CC[C@@]21C [Compound (2)-7] | 94.4 | 100 | 93.2 | 100 | 92.1 | 100 | 10.3 (≈ 24.4 µM) | 96 | 100 | 64.2 | 79.2 | 66.8 | 88.5 | 76.3 | 88.5 | – | – |
| Cc1cccc(C(=O)N2C(=O)CC[C@H]3[C@@H]4CC=C5C[C@@H](O)CC[C@]5(C)[C@H]4CC[C@@]32C)c1 [Compound (2)-8] | 51.7 | 70.1 | 43.2 | 69.7 | 48.3 | 70.5 | – | 54.9 | 73.3 | 41.9 | 52.4 | 30.3 | 54.4 | 31.8 | 56.3 | – | – |
| Cc1ccc(C(=O)N2C(=O)CC[C@H]3[C@@H]4CC=C5C[C@@H](O)CC[C@]5(C)[C@H]4CC[C@@]32C)cc1 [Compound (2)-9] | 78.7 | 100 | 80.7 | 100 | 88.8 | 100 | 14.2 (≈ 33.7 µM) | 85.5 | 100 | 59.6 | 66.2 | 55.2 | 77.5 | 63.4 | 75.9 | – | – |
| COc1ccc(C(=O)N2C(=O)CC[C@H]3[C@@H]4CC=C5C[C@@H](O)CC[C@]5(C)[C@H]4CC[C@@]32C)cc1 [Compound (2)-10] | – | – | – | – | – | – | – | – | – | 33.2 | 36 | – | – | 48.5 | 69.1 | – | – |
| C[C@]12CC[C@H](O)CC1=CC[C@@H]1[C@@H]2CC[C@@]2(C)[C@H]1CCC(=O)N2C(=O)c1cccc(C(F)(F)F)c1 [Compound (2)-11] | 42.7 | 65.5 | 40.9 | 66.3 | 44.9 | 72.7 | – | 40 | 59.7 | 35.3 | 57.8 | – | – | 45.4 | 58.3 | – | – |
| C[C@]12CC[C@H](O)CC1=CC[C@@H]1[C@@H]2CC[C@@]2(C)[C@H]1CCC(=O)N2C(=O)c1ccc([N+](=O)[O-])cc1 [Compound (2)-13] | – | – | – | – | – | – | – | – | – | – | – | 33.2 | 56.8 | – | – | – | – |
| O=[N+]([O-])NC1=NCCN1Cc1ccc(Cl)nc1 [Imidacloprid, reference compound] | – | – | – | – | – | – | – | – | – | 61.2 | 82.3 | – | – | – | – | – | – |
| CC(C)(C)c1ccc(CSc2cnn(C(C)(C)C)c(=O)c2Cl)cc1 [Pyridaben, reference compound] | – | – | – | – | – | – | – | – | – | – | – | – | – | – | – | 65.3 | 89.3 |
| CN1COCN(Cc2cnc(Cl)s2)/C1=N\[N+](=O)[O-] [Thiamethoxam, reference compound] | – | – | – | – | – | – | – | – | – | – | – | – | – | 59.5 | 76.2 | – | – |
